Literature values, collected in US20090118340A1, “Method for inhibiting and/or preventing formation of cancer metastases and seconddary malignant cancers” (priority 2007, published 2009).

System: murine leukemia L1210
Settings: for cytotoxicity in cultured leukemia cells: Pharmacological Reports, 2007, 59, 216-223

| SMILES | cytotoxicity in cultured leukemia cells | cytotoxicity, factor lower than 3-nitro-1-methylpyridinium chloride (observed only at very high concentration) |
| --- | --- | --- |
| C[n+]1cccc(C(N)=O)c1 [MNA, 1-methylnicotinamide] | negligible | about 7000 |
| C[n+]1cccc([N+](=O)[O-])c1.[Cl-] [3-nitro-1-methylpyridinium chloride, reference compound] | highest cytotoxicity |  |
